According to patent publication EP0177414A1, “Jodized triaminobenzene compounds, process for their preparation and their use in contrast products” (GUERBET S.A., priority 1984, dated 1986):
≈ marks a conversion by molar mass, not a printed value.

Legend:
[1] = Stability to sterilisation; type: physicochemical; details: treated at 121 °C for 10 mn
[2] = Neurotoxicity: acute toxicity by intracerebral administration; design: species or system souris; details: mouse, in vivo, female SWISS OF1 mice, toxicity noted 7 days after administration, read-out: DL50 IC
Excerpt: - la toxicité aiguë des composés a été déterminée sur souris femelles (poids 20 g) de souche SWISS OF1 par administration intra-cérébrale selon la technique décrite par HOLEY et Mc CQRMICK dans :
Pharmacological effects produced by intracerebral injection of drugs in the conscious mouse BRIT.J.PHARMACOL. 12, 2. 1957.
5 animaux sont utilisés par dose, les volumes administrés sont de 0,05 cm^3 - 0,07 cm^3 - 0,10 cm^3 par souris soit 2,5 - 3,5 et 5 cm^3 par kg, avec des vitesses d'injection lentes.
La toxicité (DL50) est notée 7 jours après l'administration. 2) Osmolalité

[3] = Solubility; type: physicochemical; details: read-out: Solubilité
Excerpt: (§1) - l'osmolalité exprimée en mosmoles par kg, est déterminée par cryoscopie à l'aide d'un osmomètre de type FISKE-OS Les résultats sont donnés dans le tableau suivant où l'on a également donné 1a solubilité des composés

[4] = Osmolality by cryoscopy (FISKE-OS osmometer); type: physicochemical
Excerpt: as §1

In the case of `COCC(=O)Nc1c(I)c(N(CC(O)CO)C(C)=O)c(I)c(N(CC(O)CO)C(C)=O)c1I` (centres unmarked) [Exemple 8], the “stables à la stérilisation” value [1] is reported as “ne présentent pas de modifications”, the LD50 at 168 h [2] is reported as 3300 µmol/kg and the solubility [3] is reported as 940 mM (≈ 757 mg/mL).

With `CC(=O)N(CC(O)CO)c1c(I)c(NC(=O)C(C)O)c(I)c(N(CC(O)CO)C(C)=O)c1I` (centres unmarked) [Exemple 9, 2,4,6-triiodo-1-(2-hydroxypropionyl-amino)-3,5-bis [N-(2,3-dihydroxy propyl)acétamido]benzène] the “stables à la stérilisation” value [1] was “ne présentent pas de modifications”, the LD50 at 168 h [2] was 3500 µmol/kg and the Osmolalité [4] was 690 mosmol par kg. It also gave a solubility [3] of 1000 mM (≈ 805 mg/mL).

For `CC(=O)N(CC(O)CO)c1c(I)c(N(CC(O)CO)C(C)=O)c(I)c(N(CC(O)CO)C(C)=O)c1I` (centres unmarked) [Exemple 3, 2,4,6-triiodo-1,3,5-tris [N-(2,3-dihydroxy propyl)acétamido]benzène], the “stables à la stérilisation” value [1] was “ne présentent pas de modifications”, the LD50 at 168 h [2] was 4000 µmol/kg and the Osmolalité [4] was 630 mosmol par kg. For the same compound, the solubility [3] was 1000 mM (≈ 849 mg/mL).
